Patent US20220323761A1, “METHOD FOR INDUCING HIBERNATION-LIKE STATE AND DEVICE SAME” (University of Tsukuba, priority 2019, published 2022)

Key:
[1] = test system: hM3Dq-mCherry expressing neurons; experiment: Electrophysiological study of hypothalamus slices, current-clamp firing; format: cell-based; details: bath-application, CNO 1 μM, slices of Q-hM3D mice
Procedure: The mice were decapitated under deep anesthesia using isoflurane (Pfizer). The brains were extracted and cooled in an ice-cold cutting solution containing the following (mM): 125 mM choline chloride, 25 mM NaHCO3, 10 mM D(+)-glucose, 7 mM MgCl2, 2.5 mM KCl, 1.25 mM NaH2PO4, and 0.5 mM CaCl2) bubbled with O2 (95%) and CO2 (5%). Horizontal brain slices (thickness of 250 μm) including the hypothalamus were prepared using a vibratome (VT1200S, Leica) and were maintained at room temperature for one hour in artificial CSF (ACSF) containing the following (mM): 125 mM NaCl, 26 mM NaHCO3, 10 mM D(+)-glucose, 2.5 mM KCl, 2 mM CaCl2), and 1 mM MgSO4 bubbled with O2 (95%) and CO2 (5%). The electrodes (5 to 8 MΩ) were filled with an internal solution containing the following (mM): 125 mM K-gluconate, 10 mM HEPES, 10 mM phosphocreatine, 0.05 mM tolbutamide, 4 mM NaCl, 4 mM ATP, 2 mM MgCl2, 0.4 mM GTP, and 0.2 mM EGTA, with a pH of 7.3 and adjusted with KOH). Firing of hM3Dq-mCherry expressing neurons was recorded in a current-clamp mode at a temperature of 30° C. CNO (1 μM) was bath-applied, and the effect was examined. The membrane voltage and data acquisition were controlled using a combination of the MultiClamp 700B amplifier, the Digidata 1440A A/D converter and Clampex 10.3 software (Molecular Devices). […]

hM3Dq in Q-neurons = biological target: T1, hM3Dq in Q-neurons (Homo sapiens, UniProt P20309, A239G/Y149C); experiment: Body temperature, respiratory gas, ECG, EEG, respiration and serum analysis of Q-hM3D mice after IP CNO (QIH); format: in vivo
T1 construct: mCherry (C); expressed in transfected cells; host or cells: QRFP-producing (Q) neurons of Qrfp-iCre mice transduced in vivo with AAV10-EF1α-DIO-hM3Dq-mCherry
T1 sequence (P20309 whole entry Y149C/A239G, the tested form may be a part): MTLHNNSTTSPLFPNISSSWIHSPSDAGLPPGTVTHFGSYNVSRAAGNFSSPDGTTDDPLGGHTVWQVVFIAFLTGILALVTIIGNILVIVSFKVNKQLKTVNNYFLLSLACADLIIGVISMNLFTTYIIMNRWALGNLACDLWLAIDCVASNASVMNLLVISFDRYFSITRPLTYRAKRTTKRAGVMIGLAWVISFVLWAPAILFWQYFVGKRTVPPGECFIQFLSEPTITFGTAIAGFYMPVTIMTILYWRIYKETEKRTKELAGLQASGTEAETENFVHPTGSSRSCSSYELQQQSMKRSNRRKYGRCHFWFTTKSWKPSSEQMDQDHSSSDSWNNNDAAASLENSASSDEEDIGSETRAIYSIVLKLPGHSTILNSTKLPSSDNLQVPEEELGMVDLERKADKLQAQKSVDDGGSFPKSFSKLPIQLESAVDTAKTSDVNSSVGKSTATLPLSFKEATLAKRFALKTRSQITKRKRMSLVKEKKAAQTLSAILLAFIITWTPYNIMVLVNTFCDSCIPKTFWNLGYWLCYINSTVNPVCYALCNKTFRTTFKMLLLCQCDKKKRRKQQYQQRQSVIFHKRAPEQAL
Text: In order to record the core body temperature, oxygen consumption amount, EEG, ECG, and respiratory patterns, each animal was housed in a temperature controlled chamber (HC-100, Shin Factory or LP-400P-AR, Nippon Medical & Chemical Instruments Co., Ltd.). In order to continuously record the TB (intraperitoneal temperature), a telemetry temperature sensor (TA11TA-F10, DSI) was implanted into the animal's abdominal cavity under general inhalation anesthesia at least 7 days prior to the recording. The VO 2 and carbon dioxide discharge rate (VCO2) of the animal were continuously recorded using a respiratory gas analyzer (ARCO-2000 mass spectrometer, ARCO System). The respiratory quotient was calculated from the ratio of VCO2/VO2.
The EEG and ECG were recorded using a implanted remote measurement transmitter (F20-EET or HD-X02, DSI). For EEG recording, two stainless steel screws (1 mm in diameter) were soldered to a wire of a telemetry transmitter and inserted under general anesthesia through the skull of the cortex (AP, 1.00 mm; right, 1.50 mm from bregma or lambda). Two other wires from the transmitter were placed on the surface of the thoractic cavity, and an ECG was recorded. The mice were allowed to recover from surgery for at least 10 days. An EEG/ECG data collecting system consisted of transmitters, an analog-digital converter and a recording computer with the software Ponemah Physiology Platform (version 6.30, DSI). The sampling rate was 500 Hz for both the EEG and the ECG, and the data was converted into ASCII format for review. The heart rate was evaluated through a visual inspection of the waveform.
The respiratory flow was recorded using a non-invasive respiratory flow recording system^35. Specifically, a mouse was placed in metabolic chamber (TMC-1213-PMMA, Minamiderika Shokai) having an air flow of at least 0.3 L/min. The chamber was connected to a pressure sensor (PMD-8203-3G, Biotex), and the pressure difference between the outside and inside of the chamber was detected. If the animal is breathing, the pressure difference from the outside to the inside increases during inhalation and decreases during exhalation^35. An analog signal output from the sensor was converted to a digital signal by an AD converter (NI-9205, National Instruments) at 250 Hz, and stored in a computer using data logging software developed by Biotex Inc.
The Dreadd agonist CNO (clozapine N-oxide, Abcam, ab141704) was dissolved in physiological saline at a dose of 100 μg/mL, and the solution was frozen at −20° C. The CNO solution was thawed on site and then administered to each mouse intraperitoneally at a dose of 1 mg/kg. The adenosineAl receptor agonist CHA (N^6-cyclohexyl adenosine, Sigma-Aldrich, C9901) was dissolved in physiological saline at a concentration of 250 μg/mL, and the solution was administered intraperitoneally to each mouse at a dose of 2.5 mg/kg.
Blood was collected from the mice under anesthesia through a left ventricular puncture using a 25 gauge needle. The collected blood was stored on ice for less than 2 hours. The sample was centrifuged at 2000 G for 10 minutes at 4° C., and the supernatant was collected and frozen at −30° C. The frozen serum specimens were sent to FUJIFILM Wako Pure Chemical Corporation, and the concentrations of Na (mEq/L), K (mEq/L), Cl (mEq/L), AST (IU/L), ALT (IU/L) LDH (IU/L), CK (IU/L), GLU (mg/dL), and total ketone bodies (μmol/L) were measured.

C[N+]1([O-])CCN(C2=Nc3cc(Cl)ccc3Nc3ccccc32)CC1 [CNO, clozapine N-oxide]
excitation of mCherry-positive neurons [1]: strongly excited | duration of extremely low TB state (below 30° C.) (hM3Dq in Q-neurons; IP injection, Q-hM3D mice): ≥ 48 h | hypothermia compared with Qrfp-iCre; Rosa26^dreaddm3 mice (hM3Dq in Q-neurons; IP injection, Q-hM3D mice): deeper, longer sustained hypothermia | QIH after repeated injections in the same mice (hM3Dq in Q-neurons; Q-hM3D mice): reproducible | condition of mice after recovery from QIH (hM3Dq in Q-neurons; Q-hM3D mice): healthy | electroencephalogram (EEG) in QIH (hM3Dq in Q-neurons; Q-hM3D mice): very low amplitude | induction of QIH (hM3Dq in Q-neurons; Q-hM3D mice): effectively induces QIH | tail temperature (hM3Dq in Q-neurons; Q-hM3D mice, 0.5 hours after IP CNO): increases | O2 consumption rate (VO2) change (hM3Dq in Q-neurons; Q-hM3D mice, CNO-induced hypothermic state): significant reduction | TB change after administration (hM3Dq in Q-neurons; Q-hM3D mice, concurrently with Ts): decreases | duration of QIH with TB of less than 30° C. (hM3Dq in Q-neurons; TA=20° C., one dose 1 mg/kg): ≥ 48 h | time for VO2 to fully return to normal (hM3Dq in Q-neurons; TA=20° C., one dose 1 mg/kg): about 1 week | posture during QIH (hM3Dq in Q-neurons; TA=28° C., Q-hM3D mice, n=4): extended posture | blood glucose levels in QIH (hM3Dq in Q-neurons; blood serum chemical data): reduced | effect of CNO on TB with TeTxLC co-expressed in Q-neurons (hM3Dq in Q-neurons; simultaneous infusion of AAV2/9-hSyn-DIO-TeTxLC-eYFP and AAV10-EF1α-DIO-hM3Dq-mCherry): completely eliminated | heart rate (hM3Dq in Q-neurons; two hours after CNO injection, average of n=3, 758 two hours prior): 215 beats/min | VO2 (hM3Dq in Q-neurons; two hours after CNO injection, 3.60 prior): 1.17 mL/g/h | respiratory rate (hM3Dq in Q-neurons; two hours after CNO injection, 333 prior): undetectable
